Assays:
STZ diabetic mouse model = assay: STZ diabetic mouse model, kidney inflammation and fibrosis, ND and STZ mice (Example 14); assay type: in vivo; details: for post treatment blood glucose compared with vehicle: 1 mg/kg s.c. osmotic minipump
Experimental: Mice were divided into four groups, two groups of mice remained untreated (ND) and two groups of mice were treated with STZ (150 mg/kg) by i.p. injection 1 week before starting treatment with SEQ ID NO. 2 or vehicle. Before treatment with SEQ ID NO. 2 or vehicle began, one week post STZ administration, 24 hour urine and blood samples were taken and blood glucose was assessed in all mice. The two ND groups and the two STZ treatment groups were then treated with either vehicle (10% DMSO/PBS) only or SEQ ID NO: 2 (1 mg/kg) subcutaneously by osmotic minipump. The mice were then monitored for 3 months before sacrifice. Monitoring included assessing the weight of each animal every day, taking blood samples biweekly and 24 hour urine samples at 1, 2 and 3 months post treatment. 24 hour urine samples were collected from mice placed in metabolic cages. At 3 months after treatment, a blood sample was collected (cardiac bleed) and the animals were sacrificed. Kidney and heart tissues were collected and weight and the tissues processed for in vitro analysis.
Urine samples were analysed for urinary albumin ELISA. The volume of urine was measured and then samples were diluted by 1:8000 with water. The samples were incubated for 1 h in antibody-coated 96-well plates (in duplicate). After incubation, a Development solution (100 μL) containing sandwich antibody was added to the wells and the samples incubated for 10 minutes in the dark. Stop solution (100 μL) was added and the optical density was measured at 450 nm.
The kidney tissue samples were analysed for fibrosis using Masson's trichrome staining. 4 μm-thick paraffin-embedded kidneys were sectioned. After dewaxing, sections were post-fixed in Bouin's fixative overnight. The slides were stained in Weigert's iron haematoxylin followed by Biebrich scarlet-acid fuchsin solution. The slides were differentiated in phosphomolybdic-phosphotungstic acid solution and then further stained in aniline blue solution. After differentiation in 1% acetic acid solution the slides were mounted with mounting medium and the sections were imaged on an Aperio Slide Scanner at ×20 magnification. The images were analysed on ImageJ.
Kidney samples in mice sacrificed one month after treatment were also analysed for the presence of IL-6 by western blot analysis. Homogenised kidney samples were heat-denatured and separated using SDS-PAGE. The membranes were incubated with IL-6 primary antibody at 1:500 dilution, followed by incubation with a secondary antibody (goad anti-rabbit antibody at 1:16000) and developed the following day using enhanced chemiluminescence (ECL) as a substrate. β-actin was used as a loading control.

ECE2 = molecular target: T1, ECE2 (Homo sapiens, UniProt P0DPD6); assay: QFS assay of Aβ-degrading enzymes: ECE2 (Example 6); assay type: biochemical
T1 construct: purchased R & D systems 1645-ZN-010
T1 sequence (P0DPD6 1-811): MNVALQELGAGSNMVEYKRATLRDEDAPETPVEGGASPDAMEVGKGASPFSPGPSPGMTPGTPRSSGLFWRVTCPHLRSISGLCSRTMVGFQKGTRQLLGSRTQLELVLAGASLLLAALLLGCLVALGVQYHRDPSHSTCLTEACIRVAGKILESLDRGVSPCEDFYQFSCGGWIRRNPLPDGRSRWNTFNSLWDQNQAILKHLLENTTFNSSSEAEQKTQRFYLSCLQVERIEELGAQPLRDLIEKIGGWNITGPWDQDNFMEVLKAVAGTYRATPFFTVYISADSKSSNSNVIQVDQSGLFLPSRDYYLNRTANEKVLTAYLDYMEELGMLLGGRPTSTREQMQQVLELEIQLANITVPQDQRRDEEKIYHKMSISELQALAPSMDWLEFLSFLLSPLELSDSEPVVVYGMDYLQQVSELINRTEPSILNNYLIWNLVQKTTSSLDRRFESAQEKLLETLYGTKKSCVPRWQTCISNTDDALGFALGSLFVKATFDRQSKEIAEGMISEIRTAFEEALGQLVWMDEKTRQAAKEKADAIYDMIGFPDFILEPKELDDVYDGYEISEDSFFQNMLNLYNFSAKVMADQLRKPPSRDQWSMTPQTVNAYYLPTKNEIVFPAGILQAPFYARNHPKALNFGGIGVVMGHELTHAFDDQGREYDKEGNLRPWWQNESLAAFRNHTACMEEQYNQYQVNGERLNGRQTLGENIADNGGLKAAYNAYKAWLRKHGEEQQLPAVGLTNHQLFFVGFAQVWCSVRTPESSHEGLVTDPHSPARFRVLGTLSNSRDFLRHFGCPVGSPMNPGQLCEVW
Experimental: Plate reader-based enzyme assays were performed using a quenched fluorescent substrate (QFS) in a 96-well format using a SpectraMAX M4 Microplate reader (Molecular Devices). The increase in fluorescence following addition of QFS (40 μM) was taken as evidence of enzyme activity. Fluorescence was monitored over 2 h at 37° C. using κEx=320 nm and λEm=405 nm. Assays were conducted in black 96-well plates. Specific enzyme activity was expressed as a rate of substrate cleavage calculated using a standard curve of 7-methoxy-coumarin-4-acetic acid.
In all plate reader-based enzyme assays using QFS, the reaction rate (μmol of substrate cleaved/min) was calculated using linear regression analysis (GraphPad Prism software version 8.01). The reaction rates calculated were used to generate the enzyme kinetic parameters Vmax and Km through non-linear regression analysis (GraphPad Prism software, version 8.01; Michaelis-Menten equation). Where indicated, enzyme activity in the presence of peptide was expressed as a % of the enzyme alone. Data were expressed as mean±SEM and statistical significance was determined using t-tests or one-way ANOVAs followed by Tukey's post-hoc test. P<0.05 was considered as statistically significant. […]
SEQ ID NO:2 was assessed in a QFS assay against enzymes NEP, ECE1, ECE2, ACE1, ACE2, IDE and MMP-2 using the method in Example 2 and the following procedure. […]

Substance: H-SLFELGKMIL-NH2 [SEQ ID NO:2, H2N-SLFELGKMIL-NH2]
- post treatment blood glucose compared with vehicle (STZ diabetic mouse model; ND mice): similar
- urine volume per day (STZ diabetic mouse model; ND mice, before and after treatment): the same before or after treatment
- kidney:bodyweight ratio (STZ diabetic mouse model; ND mice, peptide or vehicle): remained the same
- urinary albumin (STZ diabetic mouse model; ND mice, peptide or vehicle): remained the same
- kidney:bodyweight ratio, increase compared with STZ mice treated with vehicle (STZ diabetic mouse model; STZ mice): even more
- kidney IL-6 expression compared with vehicle treated STZ mice (STZ diabetic mouse model; STZ mice sacrificed one month after treatment, western blot): lower
- post treatment blood glucose compared with vehicle (STZ diabetic mouse model; STZ mice): marginally lower
- urinary albumin (STZ diabetic mouse model; STZ mice, 2 and 3 months post treatment, with either vehicle or peptide): increased
- renal cortical fibrosis compared to STZ mice treated with vehicle (STZ diabetic mouse model; STZ mice, Masson's trichrome staining): tendency to be lower
- urine volume per day (STZ diabetic mouse model; STZ mice, whether treated with peptide or vehicle): increased urine volume per day
- ECE2 activity compared with respective enzyme alone (ECE2; peptide 2 μM (FIG. 2c)): did not increase
- ECE2 activity, concentration dependence (ECE2; peptide 0.9-26 μM): did not affect

From US20240002441A1, “PEPTIDES AND USES THEREOF IN MODULATION OF AMYLOID-BETA PROTEIN DEGRADING PROTEASES” (priority 2020, published 2024)
